Assay results from the supplement of paper PMC10307832.

Columns and labels:
Assay in all cases: relative viability (nuclei count vs DMSO), 5 days (fraction); higher = more cells survive
[1] = compound: CN(C/C=C/C1=CC=C(C=C1)Cl)CC2=CC=CC=C2N(CCO)S(=O)(=O)C3=CC=C(C=C3)OC [KN-93] + N=C(N)NC(=N)NCCc1ccccc1 [Phenformin] (partner 250 µM)
Procedure, shortened: (§1)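 After 5 days of treatment, lung cancer cells in 1536-well plates were fixed and stained in a single step (final 0.05% Triton X-100, 1% formaldehyde, 1 ug/ml Hoechst) and their nuclei counted on 4× images. Treatment had been applied by pin tool the day after seeding as one drug alone or as a fixed anchor-drug dose with five library-drug doses (not always all listed) in √10 steps. Relative viability is the nuclei count of treated wells divided by that of vehicle wells, and values are medians of duplicate plates.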

[2] = compound: CN(C/C=C/C1=CC=C(C=C1)Cl)CC2=CC=CC=C2N(CCO)S(=O)(=O)C3=CC=C(C=C3)OC [KN-93] + Nc1nc2[nH]cc(CCc3ccc(C(=O)N[C@@H](CCC(=O)O)C(=O)O)cc3)c2c(=O)[nH]1 [Pemetrexed] (partner 0.2 µM)
Procedure, shortened: as §1

[3] = compound: CN(C/C=C/C1=CC=C(C=C1)Cl)CC2=CC=CC=C2N(CCO)S(=O)(=O)C3=CC=C(C=C3)OC [KN-93] + C[C@]1(O)C[C@@H](c2nc(-c3ccc4ccc(-c5ccccc5)nc4c3)c3c(N)nccn32)C1 [Linsitinib] (partner 1 µM)
Procedure, shortened: as §1

[4] = compound: CN(C/C=C/C1=CC=C(C=C1)Cl)CC2=CC=CC=C2N(CCO)S(=O)(=O)C3=CC=C(C=C3)OC [KN-93] + Cc1cc(Nc2cc(N3CCN(C)CC3)nc(Sc3ccc(NC(=O)C4CC4)cc3)n2)n[nH]1 [Tozasertib] (partner 0.1 µM)
Procedure, shortened: as §1

[5] = compound: CN(C/C=C/C1=CC=C(C=C1)Cl)CC2=CC=CC=C2N(CCO)S(=O)(=O)C3=CC=C(C=C3)OC [KN-93] + CC(C)C[C@H](NC(=O)[C@H](Cc1ccccc1)NC(=O)c1cnccn1)B(O)O [Bortezomib] (partner 0.002 µM)
Procedure, shortened: as §1

Row | Cell Line | relative viability ([1]; first compound 0.08 µM) | relative viability ([1]; first compound 0.253 µM) | relative viability ([1]; first compound 2.53 µM) | relative viability ([1]; first compound 8 µM) | relative viability ([2]; first compound 0.08 µM) | relative viability ([2]; first compound 0.253 µM) | relative viability ([2]; first compound 2.53 µM) | relative viability ([2]; first compound 8 µM) | relative viability ([3]; first compound 0.08 µM) | relative viability ([3]; first compound 0.253 µM) | relative viability ([3]; first compound 2.53 µM) | relative viability ([3]; first compound 8 µM) | relative viability ([4]; first compound 0.08 µM) | relative viability ([4]; first compound 0.253 µM) | relative viability ([4]; first compound 2.53 µM) | relative viability ([4]; first compound 8 µM) | relative viability ([5]; first compound 0.08 µM) | relative viability ([5]; first compound 0.253 µM) | relative viability ([5]; first compound 2.53 µM) | relative viability ([5]; first compound 8 µM)
1 | NCI-H358 | 0.32 | 0.444 | 0.384 | 0.251 | 0.166 | 0.182 | 0.169 | 0.157 | 0.631 | 0.81 | 0.634 | 0.353 | 0.1 | 0.105 | 0.089 | 0.103 | – | – | – | –
2 | NCI-H2085 | 0.698 | 0.796 | 0.815 | 0.655 | 0.933 | 0.905 | 0.883 | 0.739 | 0.782 | 0.967 | 0.929 | 0.633 | 0.667 | 0.662 | 0.873 | 0.369 | 0.909 | 1.12 | 1.16 | 0.663
3 | NCI-H661 | 0.307 | 0.273 | 0.26 | 0.294 | 0.89 | 1.15 | 0.753 | 0.504 | 0.502 | 0.531 | 0.433 | 0.562 | 0.365 | 0.355 | 0.342 | 0.36 | 0.735 | 0.901 | 0.713 | 0.665
4 | NCI-H2023 | 0.365 | 0.466 | 0.496 | 0.247 | 0.244 | 0.247 | 0.325 | 0.14 | 0.613 | 0.669 | 0.657 | 0.532 | 0.363 | 0.337 | 0.483 | 0.178 | 0.971 | 0.955 | 1.04 | 0.448
